Source: US20250207103A1, “CYTOCOMPATIBLE HYDROGELS AND METHODS OF MAKING AND USING THE SAME” (The Trustees of Indiana University, priority 2022, published 2025)

Experiments:
CAFs = assay: effect of blebbistatin and Y-27632 on spreading of CAFs in viscoelastic hydrogels; assay type: cell-based, human; conditions: Y-27632: 10 μM; for F-actin polymerization in CAFs: blebbistatin: 40 μM, Day 15
Source text: (§1) To facilitate imaging, pancreatic cancer cells COLO-357 were stably transduced with mKate2, a red fluorescent protein (RFP), using INCUCYTE® Cytolight Lentivirus reagent, followed by puromycin selection. green fluorescent protein (GFP)-labelled human pancreatic cancer associated fibroblasts (1303-GFP-49-hT, or CAF) and RFP-labelled COLO-357 (PCC) were maintained in high glucose Dulbecco's modified eagle medium (DMEM, Gibco) containing 10% Fetal bovine serum (FBS, Corning) and 1% antibiotic-antimycotic (Gibco) at 37° C. with 5% CO2. Cells were trypsinized by 0.1% trypsin-ethylenediaminetetraacetic acid (trypsin-EDTA) (Gibco) for cell encapsulation. The cell density of CAF and PCC was kept at 1.6 million/mL (M/mL) and 400 thousand/mL (k/mL), respectively, in both single-encapsulated and co-encapsulated precursor solutions. The hydrogel precursor solution was similar to the aforementioned formulations, except that 3 wt % of GelSH was included to facilitate cell proliferation. Twenty-five μL precursor solution was cured under UV light (λ=365 nm, 5 mW/cm^2) in an opened 1 mL syringe for 2 minutes. The cell-laden hydrogels were then cultured in regular cell culture media. For hydrogels treated with myosin inhibitor blebbistatin (40 μM, Peprotech) and ROCK inhibitor Y-27632 (10 μM, AdipoGen), the treated culture media was replaced daily to ensure the efficacy of inhibitors.
The cell viability of CAF in hydrogels was evaluated by staining with ethidium homodimer 3. The morphology of CAF in hydrogels was analyzed using F-actin (rhodamine phalloidin 100 nM, Cytoskeleton) and 4′,6-diamidino-2-phenylindole (DAPI) (1:1000, Anaspec) stained images. In the co-encapsulated hydrogels, cells were stained using F-actin (Actin stain 670 phalloidin 200 nM, Cytoskeleton) and DAPI (1:1000). The confocal images (Olympus Fluoview FV100 laser scanning microscope) were z-stacked from 5 μm slices over 100 μm in total.

PCCs/CAFs = assay: effect of blebbistatin and Y-27632 on PCCs/CAFs encapsulated in viscoelastic hydrogels; assay type: cell-based, human; conditions: blebbistatin: 40 μM, Y-27632: 10 μM, Day 15
Source text: as §1, with “The cell-laden hydrogels were then cultured in regular cell culture media. For hydrogels treated with myosin inhibitor blebbistatin (40 μM, Peprotech) and ROCK inhibitor Y-27632 (10 μM, AdipoGen), the treated culture media was replaced daily to ensure the efficacy of inhibitors.” left out
The cell viability of CAF in hydrogels was evaluated by staining with ethidium homodimer 3. The morphology of CAF in hydrogels was analyzed using F-actin (rhodamine phalloidin 100 nM, Cytoskeleton) and 4′,6-diamidino-2-phenylindole (DAPI) (1:1000, Anaspec) stained images. […]

Structure (SMILES) | cell morphology of CAFs (CAFs) | F-actin polymerization in CAFs (CAFs) | invasive phenotype of PCC cells in co-culture (PCCs/CAFs)
C[C@@H](N)[C@H]1CC[C@H](C(=O)Nc2ccncc2)CC1 [Y-27632] | more obvious dendritic extensions of cells | disrupted F-actin polymerization | neither the addition of blebbistatin nor Y-27632 altered invasive phenotype
Cc1ccc2c(c1)C(=O)C1(O)CCN(c3ccccc3)C1=N2 (centres unmarked) [blebbistatin] | – | disrupted F-actin polymerization | neither the addition of blebbistatin nor Y-27632 altered invasive phenotype
